In patent US10350315B2, “Quinoline-3-carboxamide compounds and their use in diagnosis” (Westfaelische Wihelms-Universitaet Muenster, priority 2014, dated 2019):

Experiments:
[1] = target: T1, S100A9 (Homo sapiens, UniProt P06702); experiment: TLR4-S100A9 ELISA: blocking of S100A9 binding to TLR4/MD2; settings: S100A9 2 μg/ml, 100 μM CES271-Cy5.5, two hours at room temperature
T1 sequence (P06702 1-114): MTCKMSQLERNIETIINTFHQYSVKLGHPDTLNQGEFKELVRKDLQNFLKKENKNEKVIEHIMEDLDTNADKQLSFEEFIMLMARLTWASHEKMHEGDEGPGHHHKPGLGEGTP
Description: FIG. 5: ELISA-based blocking study showing binding of S100A9 protein to TLR4/MD2 in the presence or absence of quinoline-3-carboxamide compounds covalently linked to a label, in this case Cy5.5-CES271.
Cy5.5-CES271 was successfully synthesized as described in the previous example. Studies were then conducted to verify that Cy5.5-CES271 maintained strong binding affinity for S100A9. In this regard, a specific ELISA (Enyme-linked Immunosorbent Assay) was developed to analyse S100A9 binding to TLR4. In this newly developed assay, the binding of S100A9 to TLR4 can be measured.
Briefly, TLR4/MD2 (3146-TM-050/CF, R&D Systems) was coupled to the wells of a 96-well plate and served as capturing molecule. After blocking of the unspecific binding sites by PBS/5% skim milk powder, plates were washed three times. S100A9 protein was added at a concentration of 2 μg/ml in the presence or absence of 100 μM CES271-Cy5.5 and incubated for two hours at room temperature. Unbound S100 protein was removed by washing the plates for three times, followed by the addition of a primary anti-S100A9-antibody (1 μg/ml, polyclonal, rabbit). After a washing step, the secondary anti-rabbit-IgG-antibody coupled to HRP (1 μg/ml, Cell Signalling) was added. TMB was used as substrate for HRP to quantify binding efficiency by absorbance readings at 450 nm in an ELISA reader (Anthos Mikrosysteme).

[2] = Biodistribution of Cy5.5-CES271 in healthy Balb/c mice (fluorescence intensity in organs); format: in vivo
Description: FIG. 16: Biodistribution of Cy5.5-CES271 in healthy Balb/c mice. The tracer was intravenously injected at a dose of 2 nmol per mouse.
The biodistribution of Cy5.5-CES271 and [^99mTc]FEB054 injected to healthy Balb/c mice was analysed by the measurement of fluorescence intensity in various organs. […] The tracer was injected at a dose of 2 nmol per mouse. […] This kinetics, that is different to previously published antibody based tracer anti-S100A9-Cy5.5^7 kinetics favors Cy5.5-CES271 for imaging of organs neighboring the liver like the lung or the heart.

[3] = target: T2, S100A9 (Mus musculus, UniProt P31725); experiment: LPS-induced acute lung injury (ALI) mouse model, FRI of explanted lungs; format: in vivo, mice
T2 construct: from tissue; host or cells: living mice (inflamed ear, joints) and explanted mouse heart, aorta and lungs
T2 sequence (P31725 2-113 limits assumed): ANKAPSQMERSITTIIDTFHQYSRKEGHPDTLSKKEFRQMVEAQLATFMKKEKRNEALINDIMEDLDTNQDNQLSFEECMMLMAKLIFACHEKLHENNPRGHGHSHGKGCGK
Description: FIG. 22: Accumulation of Cy5.5-CES271 in a mouse model of acute lung inflammation (ALI). (A) At different time points after the intranasal application of either 10 pg or 50 pg LPS the local and systemic levels of S100A8/S100A9 are compared to control animals. Exemplary paraffin sections of inflamed and healthy lung tissue, taken at 8 h after LPS (10 pg) application were stained for S100A9-expression. Histological data of control (upper image) and lung inflammation (lower image) confirmed local expression of these proteins. […] 50 pg LPS treated mice injected with glycine saturated Cy5.5 served as perfusion controls. (C) S100A8/S100A9 serum levels of LPS treated and control animals are correlated with the measured Mean Fluorescence Intensity over the lungs (R^2=0.69; n=19; p<0.001).
LPS-induced lung inflammation was elicited via intranasal application of 50 pg or 10 pg of LPS. LPS from Escherichia coli 055:B5 was obtained from Sigma-Aldrich. Directly after the administration of LPS 2 nmol of tracer were injected intravenously. Glycine saturated Cy5.5 served as a perfusion control for CES271-Cy5.5, while Cy5.5-labelled rabbit IgG without relevant specificity served as a control for aS100A9-Cy5.5. Mice were either assigned to fluorescence mediated tomography (FMT) to fluorescence reflectance imaging (FRI). For FRI imaging, the mice were sacrificed at the indicated time points. Afterwards, BALF was obtained and the lungs were fixed with 1% low melt aggarose.
2D FRI lung imaging was performed using the Bruker FX Pro Imaging Station (Bruker Corporation). Excitation light was set to 630 nm using an appropriate bandpass filter. Emission at 700 nm was recorded using a filtre-equipped high-sensitivity (4-million-pixel) cooled charge-coupled device camera. Acquisition time was 5 s for each image.
Mice were intravenously injected with Cy5.5-labelled CES271 (CES271-Cy5.5). The animals underwent optical imaging at various time points after injection. In our blocking experiments each mouse received 2 pmol CES271 1 h before 2 nmol of CES271-Cy5.5 were injected. […]

[4] = 2 nmol per mouse i.v., 1 and 3 h after injection
[5] = between 1 h and 3 h post injection, 2 nmol i.v.

3-ethyl-2((1E,3E,5E)-5-(3-(1-(5-ethyl-4-hydroxy-1-methyl-2-oxo-1,2-dihydroquinolin-3-yl)-1,15-dioxo-2-phenyl-5,8,11-trioxa-2,14-diazanonadecan-19-yl)-1,1-dimethyl-6,8-disulfonato-1H-benzo[e]indol-2(3H)-ylidene)penta-1,3-dien-1-yl)-1,1-dimethyl-1H-benzo[e]indol-3-ium-6,8-disulfonate [Cy5.5-CES271]
Blocking of binding of S100A9 to TLR4/MD2 (decrease of ELISA signal, absorbance 450 nm) [1]: markedly block
Route of elimination [2, 4]: mainly driven by renal excretion
Tissue availability [2, 4]: good tissue availability
Tracer concentration in heart, spleen, muscle, brain ([2]; 1 h compared with 3 h post injection, 2 nmol i.v.): at the same level
Tracer concentration in kidney, liver and lung ([2]; 3 h vs 1 h post injection, 2 nmol i.v.): higher tracer concentrations
Change of tracer concentration in the blood [2, 5]: decrease
Change of tracer concentration in the urine [2, 5]: increases significantly
Kinetics compared to antibody based tracers ([2]; mouse, in vivo): much faster kinetics
Tracer accumulation in explanted lungs of LPS treated mice ([3]; 3 and 6 hours after parallel LPS/tracer application, 50 pg LPS intranasal, 2 nmol i.v., n=3, p<0.01): specific tracer accumulation could clearly be delineated
Ratio of tracer accumulation in the lung parenchyma, LPS treated mice ([3]; 6 h post induction): up to 2.5
Correlation (R^2) of S100A8/S100A9 serum levels with Mean Fluorescence Intensity over the lungs ([3]; n=19, p<0.001): 0.69
